# Like-named read-outs stand apart in the source and are kept apart here.
# What was measured:
# [1] = molecular target: T1, ACOX1 (Homo sapiens, UniProt Q15067); assay: Kinobeads two-dose competition binding: ACOX1; conditions: for CATDS: sheet CATDS matrix 2, Gene Name ACOX1;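 for all read-outs here: competition of compounds with immobilized broad-spectrum kinase inhibitor beads in cell lysate at 100 and 1,000 nM, 45 min at 4 °C, bead-bound protein quantified by label-free MS versus DMSO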
# T1 construct: endogenous in cells
# T1 sequence (Q15067 1-660): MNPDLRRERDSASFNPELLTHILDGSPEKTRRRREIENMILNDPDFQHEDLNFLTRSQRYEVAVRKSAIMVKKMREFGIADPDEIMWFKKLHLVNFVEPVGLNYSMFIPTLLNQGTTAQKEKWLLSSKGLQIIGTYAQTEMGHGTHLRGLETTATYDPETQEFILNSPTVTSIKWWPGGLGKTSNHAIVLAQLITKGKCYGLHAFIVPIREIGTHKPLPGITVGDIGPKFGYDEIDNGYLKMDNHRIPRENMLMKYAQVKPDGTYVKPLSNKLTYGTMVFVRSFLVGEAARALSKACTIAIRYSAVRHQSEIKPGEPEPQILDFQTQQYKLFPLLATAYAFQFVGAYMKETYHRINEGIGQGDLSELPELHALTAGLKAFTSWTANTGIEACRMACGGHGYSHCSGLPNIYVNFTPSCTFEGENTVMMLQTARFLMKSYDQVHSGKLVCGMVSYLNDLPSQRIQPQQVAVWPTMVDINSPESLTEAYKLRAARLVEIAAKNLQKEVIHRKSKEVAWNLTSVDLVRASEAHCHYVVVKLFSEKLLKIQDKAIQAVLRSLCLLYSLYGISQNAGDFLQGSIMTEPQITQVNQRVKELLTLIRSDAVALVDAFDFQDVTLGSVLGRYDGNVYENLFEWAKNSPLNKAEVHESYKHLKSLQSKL
# [2] = molecular target: T2, AAK1 (Homo sapiens, UniProt Q2M2I8); assay: Kinobeads two-dose competition binding: AAK1; conditions: for potency estimated from few doses: read-out: Kinobeads Drugmatrix - all: apparent Kd, AAK1; for CATDS: sheet CATDS matrix 2, Gene Name AAK1;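 for all read-outs here: kinobeads competition pulldown from cell lysate, compound preincubated 45 min at 4 °C, bead-bound protein measured by label-free mass spectrometry against DMSO vehicle control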
# T2 construct: to maximize the representation of endogenous proteins; endogenous in cells
# [3] = molecular target: ABL1 (Homo sapiens, UniProt P00519); assay: Kinobeads two-dose competition binding: ABL1; conditions: sheet CATDS matrix 2; Gene Name ABL1
# [4] = molecular target: T3, ABL2 (Homo sapiens, UniProt P42684); assay: Kinobeads two-dose competition binding: ABL2; conditions: sheet CATDS matrix 2; Gene Name ABL2
# T3 construct: endogenous in cells
# [5] = molecular target: T4, ACAD11 (Homo sapiens, UniProt Q709F0); assay: Kinobeads two-dose competition binding: ACAD11; conditions: sheet CATDS matrix 2; Gene Name ACAD11
# T4 construct: endogenous in cells
# T4 sequence (Q709F0 1-780): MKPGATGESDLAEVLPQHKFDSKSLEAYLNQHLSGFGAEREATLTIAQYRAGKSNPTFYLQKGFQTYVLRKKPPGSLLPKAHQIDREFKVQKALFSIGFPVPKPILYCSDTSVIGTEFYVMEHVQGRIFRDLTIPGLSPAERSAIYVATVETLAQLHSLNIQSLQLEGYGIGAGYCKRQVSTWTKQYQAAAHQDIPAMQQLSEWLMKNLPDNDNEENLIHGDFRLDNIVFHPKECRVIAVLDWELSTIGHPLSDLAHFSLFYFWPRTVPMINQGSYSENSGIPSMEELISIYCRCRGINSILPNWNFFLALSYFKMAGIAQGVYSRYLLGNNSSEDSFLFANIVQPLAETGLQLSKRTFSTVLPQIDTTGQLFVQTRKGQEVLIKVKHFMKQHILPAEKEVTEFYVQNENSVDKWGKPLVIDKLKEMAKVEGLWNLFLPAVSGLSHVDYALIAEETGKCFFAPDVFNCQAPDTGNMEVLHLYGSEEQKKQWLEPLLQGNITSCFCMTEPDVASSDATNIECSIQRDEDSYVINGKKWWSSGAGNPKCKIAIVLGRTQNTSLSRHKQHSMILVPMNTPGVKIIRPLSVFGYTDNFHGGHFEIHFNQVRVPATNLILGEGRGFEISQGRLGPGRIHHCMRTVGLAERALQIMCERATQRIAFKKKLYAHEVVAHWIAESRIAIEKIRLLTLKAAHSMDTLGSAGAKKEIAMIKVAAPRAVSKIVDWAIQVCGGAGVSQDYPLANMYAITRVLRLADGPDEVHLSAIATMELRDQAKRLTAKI
# [6] = sheet "Kinobeads Drugmatrix - all", unit inferred, same values below 1000 recur in sheet "nanomolar"
# ABL1, sequence (P00519 28-1130 limits assumed): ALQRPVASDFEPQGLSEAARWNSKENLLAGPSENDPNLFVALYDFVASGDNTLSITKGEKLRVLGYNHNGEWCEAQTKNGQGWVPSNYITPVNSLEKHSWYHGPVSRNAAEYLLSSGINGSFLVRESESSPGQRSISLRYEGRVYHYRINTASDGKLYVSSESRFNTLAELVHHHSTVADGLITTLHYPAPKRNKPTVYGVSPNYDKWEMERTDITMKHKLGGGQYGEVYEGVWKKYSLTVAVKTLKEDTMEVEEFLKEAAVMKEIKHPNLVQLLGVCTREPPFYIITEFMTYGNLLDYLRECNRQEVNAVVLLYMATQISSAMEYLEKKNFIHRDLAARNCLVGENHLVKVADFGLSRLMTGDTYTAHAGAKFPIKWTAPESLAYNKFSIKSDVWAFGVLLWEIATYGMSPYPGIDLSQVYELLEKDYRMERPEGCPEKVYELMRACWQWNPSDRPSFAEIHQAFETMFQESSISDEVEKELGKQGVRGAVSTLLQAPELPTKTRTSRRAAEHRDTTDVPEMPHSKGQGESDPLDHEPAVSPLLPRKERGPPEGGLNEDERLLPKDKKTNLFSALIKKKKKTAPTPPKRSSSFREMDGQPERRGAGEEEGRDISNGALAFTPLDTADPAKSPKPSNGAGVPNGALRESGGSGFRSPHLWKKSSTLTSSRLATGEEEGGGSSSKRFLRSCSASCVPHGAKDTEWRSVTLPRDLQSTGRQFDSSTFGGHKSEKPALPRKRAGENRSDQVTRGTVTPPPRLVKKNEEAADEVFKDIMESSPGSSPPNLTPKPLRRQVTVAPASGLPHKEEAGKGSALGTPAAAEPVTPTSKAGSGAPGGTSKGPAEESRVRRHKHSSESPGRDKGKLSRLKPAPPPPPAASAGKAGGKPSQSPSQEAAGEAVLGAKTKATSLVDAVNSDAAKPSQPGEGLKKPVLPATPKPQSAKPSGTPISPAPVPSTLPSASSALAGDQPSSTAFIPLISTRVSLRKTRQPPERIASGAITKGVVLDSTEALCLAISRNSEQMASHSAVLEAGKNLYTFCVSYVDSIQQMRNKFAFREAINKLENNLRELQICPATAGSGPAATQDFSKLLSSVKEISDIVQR
# T3 sequence (P42684 whole entry): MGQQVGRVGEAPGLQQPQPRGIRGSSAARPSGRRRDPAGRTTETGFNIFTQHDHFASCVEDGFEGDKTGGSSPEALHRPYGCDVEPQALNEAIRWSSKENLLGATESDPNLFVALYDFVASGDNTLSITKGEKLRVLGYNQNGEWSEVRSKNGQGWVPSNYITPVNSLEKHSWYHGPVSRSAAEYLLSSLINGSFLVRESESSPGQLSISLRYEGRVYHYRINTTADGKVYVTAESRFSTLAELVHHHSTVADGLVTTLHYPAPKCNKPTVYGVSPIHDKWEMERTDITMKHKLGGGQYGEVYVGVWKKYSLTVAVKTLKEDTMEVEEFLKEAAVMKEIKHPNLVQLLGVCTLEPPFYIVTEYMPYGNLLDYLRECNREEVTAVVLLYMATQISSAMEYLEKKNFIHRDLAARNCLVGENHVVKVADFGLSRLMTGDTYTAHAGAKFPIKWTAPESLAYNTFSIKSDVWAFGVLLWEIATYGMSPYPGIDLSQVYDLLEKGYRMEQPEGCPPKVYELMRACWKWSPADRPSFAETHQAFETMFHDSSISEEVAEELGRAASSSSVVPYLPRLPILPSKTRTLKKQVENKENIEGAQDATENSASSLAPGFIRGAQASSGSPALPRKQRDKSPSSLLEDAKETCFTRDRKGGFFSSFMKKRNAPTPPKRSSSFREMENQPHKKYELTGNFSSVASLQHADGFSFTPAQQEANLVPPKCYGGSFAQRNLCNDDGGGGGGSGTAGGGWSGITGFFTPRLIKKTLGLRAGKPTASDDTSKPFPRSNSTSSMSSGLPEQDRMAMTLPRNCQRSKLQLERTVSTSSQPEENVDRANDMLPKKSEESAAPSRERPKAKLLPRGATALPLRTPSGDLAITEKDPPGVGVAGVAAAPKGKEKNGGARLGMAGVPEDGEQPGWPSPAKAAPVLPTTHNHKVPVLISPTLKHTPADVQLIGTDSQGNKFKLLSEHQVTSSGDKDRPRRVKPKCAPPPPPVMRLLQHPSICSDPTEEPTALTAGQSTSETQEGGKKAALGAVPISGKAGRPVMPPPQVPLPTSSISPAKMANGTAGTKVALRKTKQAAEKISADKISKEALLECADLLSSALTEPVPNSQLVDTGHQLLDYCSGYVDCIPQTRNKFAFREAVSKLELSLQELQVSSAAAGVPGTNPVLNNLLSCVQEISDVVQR
# T2 sequence (Q2M2I8 whole entry): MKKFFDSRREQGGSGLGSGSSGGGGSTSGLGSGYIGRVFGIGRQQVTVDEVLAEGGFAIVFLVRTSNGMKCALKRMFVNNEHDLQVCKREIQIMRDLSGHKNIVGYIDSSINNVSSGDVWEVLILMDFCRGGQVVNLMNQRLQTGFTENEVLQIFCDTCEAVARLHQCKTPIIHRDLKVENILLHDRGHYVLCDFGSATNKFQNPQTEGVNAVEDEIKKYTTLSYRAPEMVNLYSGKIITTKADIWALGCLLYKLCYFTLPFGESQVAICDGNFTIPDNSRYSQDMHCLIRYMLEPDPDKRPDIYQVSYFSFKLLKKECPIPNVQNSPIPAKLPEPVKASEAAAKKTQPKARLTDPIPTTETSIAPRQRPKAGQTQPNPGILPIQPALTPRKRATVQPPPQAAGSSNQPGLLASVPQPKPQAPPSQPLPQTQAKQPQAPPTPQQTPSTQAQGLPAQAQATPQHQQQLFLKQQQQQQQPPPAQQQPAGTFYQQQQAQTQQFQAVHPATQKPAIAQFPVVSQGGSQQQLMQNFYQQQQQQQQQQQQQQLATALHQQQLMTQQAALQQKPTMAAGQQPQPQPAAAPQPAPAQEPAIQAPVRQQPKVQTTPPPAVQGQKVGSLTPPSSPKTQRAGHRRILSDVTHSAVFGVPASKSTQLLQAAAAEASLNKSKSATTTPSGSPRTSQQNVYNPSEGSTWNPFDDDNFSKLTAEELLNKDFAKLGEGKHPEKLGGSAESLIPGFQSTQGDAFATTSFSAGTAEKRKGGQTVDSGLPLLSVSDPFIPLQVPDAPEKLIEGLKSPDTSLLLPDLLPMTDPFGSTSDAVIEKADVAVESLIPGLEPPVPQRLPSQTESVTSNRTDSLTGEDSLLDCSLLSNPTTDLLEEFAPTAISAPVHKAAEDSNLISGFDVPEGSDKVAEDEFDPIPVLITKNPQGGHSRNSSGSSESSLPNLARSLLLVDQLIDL
SMILES,CATDS [1],"potency estimated from few doses [2, 6]",CATDS [2],CATDS [3],CATDS [4],CATDS [5],"potency estimated from few doses ([1]; sheet ""Kinobeads Drugmatrix -nanomolar"" (only nanomolar interactions), read-out: Kinobeads Drugmatrix -nanomolar: apparent Kd, ACOX1)",potency estimated from few doses [2]
NCC(NC(=O)c1cc(-c2cn[nH]c2)c(-c2ccnc3[nH]ccc23)s1)c1ccccc1 (stereo not drawn) [GSK1325775A],0,> 1000 nM,0,0,0,0,,
"COc1cc2nccc(Oc3ccc(NC(=O)C4(C(=O)Nc5ccc(F)cc5)CC4)cc3)c2cc1OC [Cabozantinib, reference compound]",0,,0,0,0,0,,
"Cn1cnc2c(F)c(Nc3ccc(Br)cc3F)c(C(=O)NOCCO)cc21 [Binimetinib, reference compound]",0,,0,0,0,0,,
COc1ccc(Nc2nccc(N3CCC(NC(=O)C(C)c4ccc(Cl)cc4)C3)n2)cc1 (stereo not drawn) [GSK1379735A],0,,0,0,0,0,,
Cc1cnc(N)c(/C=C/c2cncc(C(=O)NCCc3ccc(Cl)cc3Cl)c2)c1 [GSK190937A],0,,0,0,0,0,,
COc1cc2c(cc1Nc1nc(Nc3ccsc3C(N)=O)c3cc[nH]c3n1)N(C(=O)CN(C)C)CCC2(C)C [GSK2163632A],0,,0,0,0,0,,
NC[C@H](Cc1ccc(C(F)(F)F)cc1)NC(=O)c1cc(Br)c(-c2ccnc3[nH]ccc23)s1 [GSK1487252A],0,,0,0,0,0,,
Cc1ccc(NC(=O)c2ccc(Cl)cc2)cc1-c1ccc(C(=O)Nc2ccncc2)cc1 [GSK1398467A],0.2266,,0,0,0,0,761 nM,
CCN1CCN(Cc2ccc(C(=O)Nc3ccc(C)c(Oc4ccc5c(c4)CC(=O)N5)c3)cc2C(F)(F)F)CC1 [DDR1-in-1],0,,0,0,0,0,,
COc1cc2ncnc(Nc3cccc(Cl)c3F)c2cc1O[C@H]1CC[C@@]2(CC1)NCCNC2=O [BI00113608],0,,0,0,0,0,,
Cc1ccc(NC(=O)Nc2cc(C(C)(C)C)nn2-c2ccccc2)cc1 [GSK1014915A],0,,0,0,0,0,,
CC(C)c1cc(-c2ccc3c(N)n[nH]c3c2)nc(N)n1 [GSK2250882A],0,,0.3935,0,0,0,,
O=C(NCCNc1ccnc(NCc2ccc(F)cc2)n1)c1cc2ccccc2s1 [GSK1379944A],0,,0,0,0,0,,
COc1cc(Nc2nccc(N3CCC(NC(=O)Nc4cccc(C(C)=O)c4)C3)n2)cc(OC)c1OC (stereo not drawn) [GSK1379753A],0,,0,0,0,0,,
COc1ccc(S(=O)(=O)NC2CCN(c3cc(C)nc(Nc4cccc(C#N)c4)n3)CC2)cc1 [GSK1653539A],0,,0,0,0,0,,
NC(CNC(=O)c1cc(Br)c(-c2ccnc3[nH]ccc23)s1)c1ccccc1 (stereo not drawn) [GSK1322949A],0,> 1000 nM,0,0,0,0,,
CNS(=O)(=O)c1ccc(N(C)C)c(Nc2ncnc3cc(OC)c(OC)cc23)c1 [GSK114],0,,0,0,0,0,,
NC[C@H](CC1CCCCC1)NC(=O)c1ccc(-c2ccnc3[nH]ccc23)s1 [GSK1581428A],0,,0.07203,0,0,0,,54.5 nM
c1ccc(-c2cc3ccncc3cc2OC2CCNCC2)cc1 [GSK1122999D],0,,0,0,0,0,,
COc1cc2ncn(-c3cc(OCCc4ccccc4)c(C(N)=O)s3)c2cc1OC [GSK204925A],0,,0,0,0,0,,
COc1cc(N2CCN(C(C)C)CC2)ccc1Nc1nc(Nc2ccc(F)cc2C(N)=O)c2cc[nH]c2n1 [GSK1220512A],0,,0,0,0,0,,

# Second part, led by results:
CATDS [1],"potency estimated from few doses [2, 6]",CATDS [2],CATDS [3],CATDS [4],CATDS [5],"potency estimated from few doses ([1]; sheet ""Kinobeads Drugmatrix -nanomolar"" (only nanomolar interactions), read-out: Kinobeads Drugmatrix -nanomolar: apparent Kd, ACOX1)",SMILES,potency estimated from few doses [2]
0,,0,0,0,0,,Cc1ccc(NC(=O)c2cccc(N3CCCCC3)c2)cc1-c1ccc(C(=O)NCC2CC2)cc1 [GSK1917008A],
0,,0,0,0,0,,O=c1cc(N2CCOCC2)nc2n(Cc3cccc(Cl)c3Cl)c(C3CC3)nn12 [GSK2358994A],
0,,0,0,0,0,,O=C(Nc1ccccc1F)NC1CCN(c2ccnc(Nc3ccc(F)cc3)n2)C1 (stereo not drawn) [GSK1379722A],
0,,0,0,0,0,,O=c1cc(N2CCOCC2)nc2n(Cc3cccc(Cl)c3Cl)c3ccccc3n12 [GSK2299009A],
0,,0,0,0,0,,COc1cc2c(cc1OC)C(=C(Nc1ccccc1)c1cccc(CN)c1)C(=O)N2 [BIBF0846CL],
0,,0,0,0,0,,COc1ccc(Nc2nccc(N3CCC(NC(=O)c4cccc(NC(C)=O)c4)C3)n2)cc1 (stereo not drawn) [GSK1379732A],
0,,0,0,0,0,,Cc1c(Cn2c(C)c(C)n3c(=O)cc(N4CCOCC4)nc23)cccc1C(F)(F)F [GSK2328680_KCGS],
0,,0.01731,0,0,0,,"COc1cc(N2CCC(N3CCN(C)CC3)CC2)ccc1Nc1ncc(Cl)c(Nc2ccccc2P(C)(C)=O)n1 [Brigatinib, reference compound]",
0,,0,0,0,0,,O=C1Nc2ccccc2/C1=C1\CCc2cc(O)ccc21 [GR105659X],
0,,0,0,0,0,,"O=S(=O)(c1cccc2cnccc12)N1CCCNCC1 [Fasudil, reference compound]",

# Source: paper PMC11062922 (Nature Chemical Biology, 2023)
